Assay results taken from US20160333419A1, “GENE SIGNATURES ASSOCIATED WITH SENSITIVITY TO MDM2 INHIBITORS” (DAIICHI SANKYO COMPANY, LIMITED, priority 2014, published 2016).

Tests used:
Experiment in all cases: OncoPanel cytotoxicity assay
Format in all cases: cell-based
786-O = conditions: Homo sapiens, 786-0, 72 hour incubation
Outline: (§1)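 Cells grown in RPMI 1640 with 10% FBS (or a special medium) at 37° C, 5% CO2 were treated 24 hours after seeding for 72 hours with 10 concentrations (3.16-fold dilutions, 0.1% DMSO final). Nuclei were dye-stained and imaged; IC50 was fit from percent of control relative cell count.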

A431 = conditions: Homo sapiens, A-431, 72 hour incubation
Outline: as §1

A549 = conditions: Homo sapiens, 72 hour incubation
Outline: as §1

A7 = conditions: Homo sapiens, 72 hour incubation
Outline: as §1

BFTC-905 = conditions: Homo sapiens, 72 hour incubation
Outline: as §1

BT-549 = conditions: Homo sapiens, 72 hour incubation
Outline: as §1

BT474 = conditions: Homo sapiens, BT-474, 72 hour incubation
Outline: as §1

C-4 II = conditions: Homo sapiens, 72 hour incubation
Outline: as §1

CHP-212 = conditions: Homo sapiens, 72 hour incubation
Outline: as §1

CaOV3 = conditions: Homo sapiens, Caov-3, 72 hour incubation
Outline: as §1

Caki-2 = conditions: Homo sapiens, 72 hour incubation
Outline: as §1

DB = conditions: Homo sapiens, 72 hour incubation
Outline: as §1

Daoy = conditions: Homo sapiens, 72 hour incubation
Outline: as §1

G-401 = conditions: Homo sapiens, 72 hour incubation
Outline: as §1

G-402 = conditions: Homo sapiens, 72 hour incubation
Outline: as §1

HCT-8 = conditions: Homo sapiens, 72 hour incubation
Outline: as §1

HEC-1-A = conditions: Homo sapiens, 72 hour incubation
Outline: as §1

HOS = conditions: Homo sapiens, 72 hour incubation
Outline: as §1

HuCCT1 = conditions: Homo sapiens, HuCCT-1, 72 hour incubation
Outline: as §1

JAR = conditions: Homo sapiens, 72 hour incubation
Outline: as §1

MEG01 = conditions: Homo sapiens, MEG-01, 72 hour incubation
Outline: as §1

MES-SA = conditions: Homo sapiens, 72 hour incubation
Outline: as §1

MT-3 = conditions: Homo sapiens, 72 hour incubation
Outline: as §1

MX1 = conditions: Homo sapiens, 72 hour incubation
Outline: as §1

MeWo = conditions: Homo sapiens, 72 hour incubation
Outline: as §1

NCI-H508 = conditions: Homo sapiens, 72 hour incubation
Outline: as §1

NCIH441 = conditions: Homo sapiens, NCI-H441, 72 hour incubation
Outline: as §1

SCC-25 = conditions: Homo sapiens, 72 hour incubation
Outline: as §1

SK-NEP-1 = conditions: Homo sapiens, 72 hour incubation
Outline: as §1

ST486 = conditions: Homo sapiens, 72 hour incubation
Outline: as §1

SU.86.86 = conditions: Homo sapiens, 72 hour incubation
Outline: as §1

SW1463 = conditions: Homo sapiens, 72 hour incubation
Outline: as §1

SW480 = conditions: Homo sapiens, 72 hour incubation
Outline: as §1

SW872 = conditions: Homo sapiens, 72 hour incubation
Outline: as §1

SW948 = conditions: Homo sapiens, 72 hour incubation
Outline: as §1

SW962 = conditions: Homo sapiens, SW 962, 72 hour incubation
Outline: as §1

T24 = conditions: Homo sapiens, T-24, 72 hour incubation
Outline: as §1

TCCSUP = conditions: Homo sapiens, TCC-SUP, 72 hour incubation
Outline: as §1

U2OS = conditions: Homo sapiens, 72 hour incubation
Outline: as §1

## CC1(C)CCC2(CC1)N[C@@H](C(=O)N[C@@H]1CC[C@@H](C(N)=O)OC1)[C@H](c1ccnc(Cl)c1F)[C@]21C(=O)Nc2cc(Cl)ccc21 [Compound B, (3′R,4′S,5′R)—N-[(3R,6S)-6-carbamoyltetrahydro-2H-pyran-3-yl]-6″-chloro-4′-(2-chloro-3-fluoropyridin-4-yl)-4,4-dimethyl-2″-oxo-1″,2″-dihydrodispiro[cyclohexane-1,2′-pyrrolidine-3′,3″-indole]-5′-carboxamide]
786-O
  IC50: 0.342 µM
A431
  IC50: > 10 µM
A549
  IC50: 0.0769 µM
A7
  IC50: 3.59 µM
BFTC-905
  IC50: 8.51 µM
BT-549
  IC50: > 10 µM
BT474
  IC50: > 10 µM
C-4 II
  IC50: 9.1 µM
CHP-212
  IC50: 0.0294 µM
CaOV3
  IC50: > 10 µM
Caki-2
  IC50: 0.0821 µM
DB
  IC50: 5.98 µM
Daoy
  IC50: > 10 µM
G-401
  IC50: 0.0354 µM
G-402
  IC50: 0.0261 µM
HCT-8
  IC50: 0.0516 µM
HEC-1-A
  IC50: > 10 µM
HOS
  IC50: > 10 µM
HuCCT1
  IC50: > 10 µM
JAR
  IC50: 0.0861 µM
MEG01
  IC50: 9.7 µM
MES-SA
  IC50: 0.0641 µM
MT-3
  IC50: 0.164 µM
MX1
  IC50: 9.16 µM
MeWo
  IC50: > 10 µM
NCI-H508
  IC50: > 10 µM
NCIH441
  IC50: > 10 µM
SCC-25
  IC50: 9.86 µM
SK-NEP-1
  IC50: > 10 µM
ST486
  IC50: 6.44 µM
SU.86.86
  IC50: 8.86 µM
SW1463
  IC50: > 10 µM
SW480
  IC50: > 10 µM
SW872
  IC50: > 10 µM
SW948
  IC50: > 10 µM
SW962
  IC50: > 10 µM
T24
  IC50: > 10 µM
TCCSUP
  IC50: > 10 µM
U2OS
  IC50: 0.248 µM

## CC[C@@H]1CNC2(CC2)CN1C(=O)[C@@H]1C[C@@H](F)CN1C(=O)C1=C(C(C)C)N2C(=N[C@@](C)(c3ccc(Cl)nc3)[C@H]2c2ccc(Cl)c(F)c2)S1 [Compound A, [(5R,6S)-5-(4-Chloro-3-fluorophenyl)-6-(6-chloropyridin-3-yl)-6-methyl-3-(propan-2-yl)-5,6-dihydroimidazo[2,1-b][1,3]thiazol-2-yl][(2S,4R)-2-{[(6R)-6-ethyl-4,7-diazaspiro[2.5]oct-7-yl]carbonyl}-4-fluoropyrrolidin-1-yl]methanone]
786-O
  IC50: 37.3 µM
A431
  IC50: > 40 µM
A549
  IC50: 0.401 µM
A7
  IC50: > 40 µM
BFTC-905
  IC50: > 40 µM
BT-549
  IC50: > 40 µM
BT474
  IC50: > 40 µM
C-4 II
  IC50: > 40 µM
CHP-212
  IC50: 0.196 µM
CaOV3
  IC50: > 40 µM
Caki-2
  IC50: 0.472 µM
DB
  IC50: > 40 µM
Daoy
  IC50: > 40 µM
G-401
  IC50: 0.242 µM
G-402
  IC50: 0.568 µM
HCT-8
  IC50: 0.506 µM
HEC-1-A
  IC50: > 40 µM
HOS
  IC50: > 40 µM
HuCCT1
  IC50: > 40 µM
JAR
  IC50: 0.549 µM
MEG01
  IC50: > 40 µM
MES-SA
  IC50: 0.529 µM
MT-3
  IC50: 1.13 µM
MX1
  IC50: 39 µM
MeWo
  IC50: > 40 µM
NCI-H508
  IC50: > 40 µM
NCIH441
  IC50: > 40 µM
SCC-25
  IC50: > 40 µM
SK-NEP-1
  IC50: > 40 µM
ST486
  IC50: 24.3 µM
SU.86.86
  IC50: > 40 µM
SW1463
  IC50: > 40 µM
SW480
  IC50: > 40 µM
SW872
  IC50: > 40 µM
SW948
  IC50: > 40 µM
SW962
  IC50: > 40 µM
T24
  IC50: > 40 µM
TCCSUP
  IC50: > 40 µM
U2OS
  IC50: 1.24 µM
